Results from publication PMC8970883, “Simultaneous Determination of Seven Phenolic Acids, Two Flavonoids, and Tussilagone in Rat Plasma after Administration of Farfarae Flos Extract by LC–MS/MS” (Evidence-based Complementary and Alternative Medicine : eCAM, 2022).
Like-named read-outs stand apart in the source and are kept apart here.

How the values were obtained:
[1] = Pharmacokinetic study in rats after intragastric administration of Farfarae Flos extract (plasma, LC-MS/MS); assay type: in vivo; settings: for Cmax / Tmax / half-life / MRT last / MRT inf: male; for Cmax: rat, plasma, po; for MRT last: read-out: MRT(0–24h); for MRT inf: read-out: MRT(0–∞)
Source text: A high-performance liquid chromatography instrument was used to separate three types of compounds (Agilent 1200 series, USA). The HPLC instrument is composed of four parts; a G1322A degasser, G1312A Bin Pump, G1367B auto-sampler, and G1316A thermostatic column compartment. Three types of compounds and three internal standards (ISs) were separated on an Eclipse Plus C18 (4.6 × 100 mm, 1.8 μm). The mobile phase was composed of formic acid aqueous solution (A) and formic acid methanol solution (B). The concentration of formic acid in both A and B solution was 0.1% (v/v). The gradient elution was as follows. The proportion of 10% B changes to 40% from 0 min to 3mins. 40% B changes to 90% from 16 to 18 min. B is maintained at 100% from 19 to 28 min. The flow rate, sample injected volume, and column temperature was 0.35 mL·min^−1, 10 μL, and 35°C, respectively.
Quantitative analysis of all samples was performed on Sciex API 3200 with an electrospray ionization (ESI) source. Analyst 1.6.2 workstation for instrument operation, data management, and data analysis were employed to analyze and process data (AB, Sciex). Ten analyzed compounds and three ISs were optimized during multiple reactions monitoring (MRM). […] MRM parameters of CCLA were set at 353.1-191.0. […] MRM parameters of IAB were set as 515.3-353.2 and MRM parameters of IAA were set at 515.2-353.0. MRM parameters of IAC and tussilagone were set as 515.3-352.9, 391.4-217.4, respectively.
Twenty male rats (4 months old, weight 240 ± 20 g) were obtained commercially from Vital River Laboratory Animal Company (Beijing, China). Before the pharmacokinetic experiments, they were free to eat food and drink water for one week for adapting to the environment when the dark light cycle was 12 hours, while the temperature was maintained at 25 ± 5°C. The animal experiments were guided and strictly approved by Tianjin Hospital animal ethics committee. They were fasted for 12 hours and could only drink freely water before intragastric administration of Farfarae Flos extract. Ten rats in each group were employed for eliminating data variation caused by different animal individuals. All rats in groups 1 and group 2 were orally administrated one time at two dosages of Farfarae Flos extract (carboxymethyl cellulose sodium salt (0.5%) was used to suspend the extract to prepare the administration solution 3.90 g·kg^−1 and 7.80 g·kg^−1), respectively. Rats were anesthetized with ether. The heparinized 1.5 mL polythene tube was used to collect bank plasma samples before administering dose of the extract. About 250 μL plasma samples were collected at each collecting points of 5 min, 10 min, 0.25 h, 0.50 h, 0.75 h, 1 h, 2 h, 4 h, 8 h, 12 h, 24 h, and 36 h via fossa orbitalis after dosing. All plasma samples from collecting points need to be centrifuged at 4,000 rpm for ten minutes. The supernatant fluid of centrifuged plasma samples was obtained and immediately stored at −20°C in a refrigerator until they were analyzed.
The maximum concentration (Cmax) and the time to reach the maximum concentration (Tmax) of ten target compounds were directly calculated by the real concentration-time data in the plasma. The data were expressed as mean ± SD.
Ten microliters of ISs solution (contained puerarin, ferulic acid, and artemisinin) and the plasma sample (100 μL) were added into a clean tube, and then acetonitrile (400 μL) was added to precipitate protein. After centrifugation at 14000 rpm for 10 minutes, a mild nitrogen flow was used to evaporate the liquid of the supernatant to dryness. Then, the residue was dissolved in methanol (100 μL). The solution was vortexed for 3 min, mixed for 3 minutes with ultrasound, and centrifuged for 10 min. Finally, the solution (10 μL) was used to detect concentration of ten target compounds in rat plasma.

[2] = Stability of QC samples in rat plasma (24 h, freeze-thaw, 4 weeks); assay type: in vitro ADME; settings: six replicates; for Freeze-thaw stability, percent remaining: freeze-thaw cycles −20°C to 20°C; for Long stability Remain (%): stored at −80°C for 4 weeks; for 24 h stability Remain (%): 24 hours at 20°C
Procedure: Stock solution of 10 analytical compounds (1.00 mg·mL^−1) and three internal standards (ISs) was dissolved in methanol and placed in the refrigerator before testing. Methanol was used to prepare ferulic acid (IS1), puerarin (IS2), and artemisinin (IS3) solutions to reach a concentration of 1 μg mL^−1, respectively. A specific volume of each analyte stock solution is mixed together to prepare the standard working solution containing 10 analytes with a concentration of 10 times at LLOQ and three levels (high, medium, and low). Quality control (QC) samples for methodological validation were prepared to obtain the final concentration by adding standard working solution (10 μL) into blank plasma samples (100 μL).
Four concentration levels of ICB and ICA were 4, 12, 400, and 12000 ng mL^−1, respectively. Four concentration levels of caffeic acid were 10, 30, 1000, and 30000 ng·mL^−1, respectively.
In the stability test, 24-hour stability (The samples were placed for 24 hours at 20°C and then measured), freeze-thaw cycles (The sample was injected after the temperature changing from −20°C to 20°C), and 4 weeks stability (The sample was determined after stored at −80°C for 4 weeks) of representative QC samples were all tested. All of them were assayed with six replicates.

[3] = 3.9 g/kg, oral Farfarae Flos extract 3.9 g·kg^−1, mean ± SD
[4] = 7.8 g/kg, oral Farfarae Flos extract 7.8 g·kg^−1, mean ± SD
[5] = rat plasma, oral Farfarae Flos extract 3.9 g·kg^−1, mean ± SD
[6] = rat plasma, oral Farfarae Flos extract 7.8 g·kg^−1, mean ± SD
[7] = high concentration level (3000-30000 ng·mL^−1)
[8] = low concentration level (3-30 ng·mL^−1)
[9] = medium concentration level (100-1000 ng·mL^−1)

Row | Cmax [1, 3] | Cmax [1, 4] | Tmax [1, 5] | half-life [1, 5] | MRT last [1, 5] | MRT inf [1, 5] | Tmax [1, 6] | half-life [1, 6] | MRT last [1, 6] | MRT inf [1, 6] | AUC(0–24h) [1, 5] | AUC(0–∞) [1, 5] | AUC(0–24h) [1, 6] | AUC(0–∞) [1, 6] | Freeze-thaw stability, percent remaining [2, 7] | Long stability Remain (%) [2, 7] | Freeze-thaw stability, percent remaining [2, 8] | Freeze-thaw stability, percent remaining [2, 9] | 24 h stability Remain (%) [2, 7] | 24 h stability Remain (%) [2, 8] | also measured | Compound
1 | 0.074 ± 0.052 µg/mL | 0.486 ± 0.273 µg/mL | 0.69 ± 0.19 h | 1.61 ± 1.1 h | 4.35 ± 2.74 h | 7.9 ± 7.34 h | 0.36 ± 0.13 h | 1.49 ± 0.54 h | 6.33 ± 2.33 h | 8.61 ± 2.66 h | 210.2 ± 126.4 ng/mL ∗ h | 239.3 ± 125.3 ng/mL ∗ h | 965.7 ± 295.9 ng/mL ∗ h | 1028 ± 3007 ng/mL ∗ h | 87.0% | 114% | 111% | 82.9% | – | – | – | O=C(/C=C/c1ccc(O)c(O)c1)O[C@@H]1C[C@@](O)(C(=O)O)C[C@@H](O)[C@@H]1O [NCLA, neochlorogenic acid]
2 | 0.0473 ± 0.0296 µg/mL | 0.265 ± 0.0955 µg/mL | 0.56 ± 0.25 h | 4.25 ± 6.16 h | 5.79 ± 3.25 h | 18.7 ± 18.6 h | 0.35 ± 0.21 h | 1.37 ± 0.83 h | 8.8 ± 2.73 h | 13.8 ± 4.86 h | 187 ± 85.5 ng/mL ∗ h | 319.1 ± 217.3 ng/mL ∗ h | 823.4 ± 182.9 ng/mL ∗ h | 941.9 ± 204.7 ng/mL ∗ h | 93.7% | 106% | 106% | 98.6% | 97.6% | 91.7% | Long stability Remain (%) [2, 8]: 102%; 24 h stability Remain (%) [2, 9]: 105%; Long stability Remain (%) [2, 9]: 108% | O=C(C=Cc1ccc(O)c(O)c1)OC1CC(O)(C(=O)O)CC(O)C1OC(=O)C=Cc1ccc(O)c(O)c1 (stereo not shown) [IAC, isochlorogenic acid C]
3 | 0.177 ± 0.131 µg/mL | > 1 µg/mL | 0.64 ± 0.2 h | 1.03 ± 0.53 h | 4.17 ± 1.73 h | 5.16 ± 2.01 h | 0.39 ± 0.2 h | 1.06 ± 0.58 h | 5.02 ± 2.07 h | 6.23 ± 2.1 h | 422.3 ± 210.5 ng/mL ∗ h | 585.7 ± 414.0 ng/mL ∗ h | 1938 ± 1401 ng/mL ∗ h | 2019 ± 1397 ng/mL ∗ h | 93.2% | 95.9% | 96.8% | 82.9% | 112% | 98.4% | Long stability Remain (%) [2, 8]: 97.5%; 24 h stability Remain (%) [2, 9]: 112%; Long stability Remain (%) [2, 9]: 98.6% | O=C(/C=C/c1ccc(O)c(O)c1)O[C@H]1[C@H](O)C[C@](O)(C(=O)O)C[C@H]1O [CCLA, cryptochlorogenic acid]
4 | 0.00083 ± 0.0005 µg/mL | 0.0181 ± 0.013 µg/mL | 0.44 ± 0.38 h | 0.28 ± 0.2 h | 0.87 ± 0.134 h | 3.12 ± 2.62 h | 0.4 ± 0.33 h | 0.82 ± 0.72 h | 2.42 ± 2.1 h | 6.98 ± 9.13 h | 1.06 ± 0.564 ng/mL ∗ h | 2.19 ± 1.98 ng/mL ∗ h | 35.48 ± 42.302 ng/mL ∗ h | 47.12 ± 49.445 ng/mL ∗ h | 91.8% | 109% | 83.9% | 115% | 95.0% | 100% | Terminal elimination half-life ([1]; rat plasma, compared among the three types of compounds, Farfarae Flos extract 3.90 and 7.80 g·kg^−1): shortest; Long stability Remain (%) [2, 8]: 101%; 24 h stability Remain (%) [2, 9]: 92.1%; Long stability Remain (%) [2, 9]: 107% | C=C1[C@H](OC(=O)/C=C(\C)CC)C[C@@H](C(C)C)[C@@H]2[C@@H]([C@@H](C)OC(C)=O)C(=O)C[C@@H]12 [Tussilagone, tussilagone]
